Data from US20250059180A1 (DONG WHA PHARM. CO., LTD., priority 2022, published 2025).
Like-named read-outs stand apart in the source and are kept apart here.

How the values were obtained:
EZH2 = EZH2 (Homo sapiens, UniProt Q15910); assay: AlphaLISA evaluation of inhibitory activity against EZH2; assay type: biochemical; details: DMSO control; for Enzyme inhibition % EZH2 5 nM: test material 5 nM; for Enzyme inhibition % EZH2 10 nM: test material 10 nM
Protocol: (§1) In order to confirm the EZH1 and/or EZH2 activity inhibitory effect of the 1,3-benzodioxole derivative compounds represented by chemical formula I of the present invention, the activity was measured using an AlphaLISA test method.
(§2) The test material dissolved in dimethylsulfoxide (DMSO) was diluted in a test solution (20 mM Tris pH 8.0, 0.1% BSA, 0.01% Triton X-100, 0.5 mM DTT) according to a final treatment concentration (5 nM or 10 nM), mixed with EZH1 and EZH2, respectively, and then added with histone H3 peptide and S-adenosylmethionine (SAM) to initiate an enzyme reaction. An acceptor bead was added thereto after reaction for two hours and subjected to an additional reaction for one hour, after which a donor bead was added thereto. After an additional reaction for 30 minutes, the reaction was completed. Activity was measured using the Magellan program on a Spark10M instrument. DMSO was used as a control group, an inhibition rate of enzyme activity was calculated using the following equation, and the results thereof are shown in Table 1 below.
(§3) Activity inhibition rate (%)=(1−(Group treated with test material/Control group))*100

[1] = system: Pfeiffer cells, lymphoma cells having EZH2 mutation (A677G); assay: Proliferation inhibition of cells of hematologic malignancies (CCK-8, 11 days); assay type: cell-based; details: 11 days culture, read-out: Cell proliferation inhibitory effect (IC50)
Summary of the method: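 Pfeiffer lymphoma cells (EZH2 A677G) in RPMI1640 with 10% FBS were seeded at 10,000 cells/well and exposed to test material for 11 days, with compound replaced every 3–4 days. Viability was read by CCK-8 absorbance at 450 nm, and IC50 was derived by non-linear regression curve fitting.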

EZH1 = EZH1 (Homo sapiens, UniProt Q92800); assay: AlphaLISA evaluation of inhibitory activity against EZH1; assay type: biochemical; details: DMSO control; for Enzyme inhibition % EZH1 10 nM: test material 10 nM; for Enzyme inhibition % EZH1 5 nM: test material 5 nM
Protocol: as §1, §2, §3

Chain of EZH1 (Q92800 whole entry): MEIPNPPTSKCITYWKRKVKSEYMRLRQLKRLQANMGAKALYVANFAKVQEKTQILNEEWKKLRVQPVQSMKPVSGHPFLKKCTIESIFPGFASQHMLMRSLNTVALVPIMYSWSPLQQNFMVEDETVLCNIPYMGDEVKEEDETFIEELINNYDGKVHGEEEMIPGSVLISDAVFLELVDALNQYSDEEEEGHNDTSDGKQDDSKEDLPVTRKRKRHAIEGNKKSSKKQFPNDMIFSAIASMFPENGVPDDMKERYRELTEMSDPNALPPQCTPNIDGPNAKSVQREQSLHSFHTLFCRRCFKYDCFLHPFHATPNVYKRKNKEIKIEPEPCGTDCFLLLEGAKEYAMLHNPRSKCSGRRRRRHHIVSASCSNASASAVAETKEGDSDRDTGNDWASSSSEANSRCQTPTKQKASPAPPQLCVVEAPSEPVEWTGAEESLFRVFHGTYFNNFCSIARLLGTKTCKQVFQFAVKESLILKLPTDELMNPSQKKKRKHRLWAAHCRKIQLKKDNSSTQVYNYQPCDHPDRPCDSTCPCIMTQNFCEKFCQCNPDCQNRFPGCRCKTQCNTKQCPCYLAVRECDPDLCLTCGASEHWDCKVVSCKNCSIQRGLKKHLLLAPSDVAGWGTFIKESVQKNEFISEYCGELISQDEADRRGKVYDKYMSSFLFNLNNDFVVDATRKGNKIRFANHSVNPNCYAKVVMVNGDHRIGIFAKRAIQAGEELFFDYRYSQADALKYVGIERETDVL
Chain of EZH1 (O75530 whole entry partner): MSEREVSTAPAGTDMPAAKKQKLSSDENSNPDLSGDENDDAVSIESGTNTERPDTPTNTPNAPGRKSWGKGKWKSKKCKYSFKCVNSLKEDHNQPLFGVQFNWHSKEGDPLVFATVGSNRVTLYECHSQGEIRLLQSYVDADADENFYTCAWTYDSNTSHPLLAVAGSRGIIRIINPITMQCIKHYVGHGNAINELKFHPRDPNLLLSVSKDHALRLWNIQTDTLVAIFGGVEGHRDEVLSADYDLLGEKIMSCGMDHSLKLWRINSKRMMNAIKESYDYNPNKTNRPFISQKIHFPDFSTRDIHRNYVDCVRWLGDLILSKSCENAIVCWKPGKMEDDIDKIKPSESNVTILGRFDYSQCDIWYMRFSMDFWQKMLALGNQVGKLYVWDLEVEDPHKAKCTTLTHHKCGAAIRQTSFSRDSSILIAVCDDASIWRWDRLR
Chain of EZH1 (Q15022 whole entry partner): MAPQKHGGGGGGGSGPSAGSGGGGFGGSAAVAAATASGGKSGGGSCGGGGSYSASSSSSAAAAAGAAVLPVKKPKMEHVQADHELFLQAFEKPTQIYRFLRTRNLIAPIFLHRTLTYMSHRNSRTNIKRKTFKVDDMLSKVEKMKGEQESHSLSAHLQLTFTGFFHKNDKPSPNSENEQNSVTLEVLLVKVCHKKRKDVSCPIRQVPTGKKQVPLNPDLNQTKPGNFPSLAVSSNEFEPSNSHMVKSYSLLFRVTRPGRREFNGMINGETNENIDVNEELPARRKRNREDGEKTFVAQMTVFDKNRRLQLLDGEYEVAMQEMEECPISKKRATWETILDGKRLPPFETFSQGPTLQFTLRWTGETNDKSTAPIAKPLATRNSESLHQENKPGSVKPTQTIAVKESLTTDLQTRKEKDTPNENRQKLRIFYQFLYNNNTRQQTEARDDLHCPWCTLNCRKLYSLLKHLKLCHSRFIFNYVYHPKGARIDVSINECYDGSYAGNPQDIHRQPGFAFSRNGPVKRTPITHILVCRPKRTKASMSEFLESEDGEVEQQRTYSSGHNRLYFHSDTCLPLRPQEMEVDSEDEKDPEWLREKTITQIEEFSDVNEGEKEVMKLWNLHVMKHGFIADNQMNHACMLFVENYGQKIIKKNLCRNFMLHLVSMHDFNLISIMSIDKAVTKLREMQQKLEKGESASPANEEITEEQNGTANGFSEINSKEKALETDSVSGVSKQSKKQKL
Chain of EZH2 (Q15910 whole entry): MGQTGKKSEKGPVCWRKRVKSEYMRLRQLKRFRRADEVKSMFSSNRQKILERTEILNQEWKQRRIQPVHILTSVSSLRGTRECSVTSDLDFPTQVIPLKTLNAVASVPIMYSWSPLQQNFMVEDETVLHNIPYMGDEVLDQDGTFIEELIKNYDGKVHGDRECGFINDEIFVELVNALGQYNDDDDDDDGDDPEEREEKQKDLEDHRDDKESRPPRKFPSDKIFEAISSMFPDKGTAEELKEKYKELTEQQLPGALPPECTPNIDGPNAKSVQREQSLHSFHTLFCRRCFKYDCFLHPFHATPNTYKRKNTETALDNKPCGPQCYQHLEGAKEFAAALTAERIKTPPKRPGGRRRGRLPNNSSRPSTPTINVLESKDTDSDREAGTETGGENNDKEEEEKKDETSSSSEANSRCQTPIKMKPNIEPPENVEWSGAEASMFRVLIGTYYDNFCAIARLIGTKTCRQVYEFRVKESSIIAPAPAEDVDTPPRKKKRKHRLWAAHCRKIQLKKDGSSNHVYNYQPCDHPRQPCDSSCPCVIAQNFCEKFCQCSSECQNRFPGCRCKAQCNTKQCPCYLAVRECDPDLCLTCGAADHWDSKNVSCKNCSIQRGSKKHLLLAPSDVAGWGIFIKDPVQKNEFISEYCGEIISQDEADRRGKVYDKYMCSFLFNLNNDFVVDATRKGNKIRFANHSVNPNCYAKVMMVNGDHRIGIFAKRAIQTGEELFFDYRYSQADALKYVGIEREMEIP
Chain of EZH2 (O75530 whole entry partner): as the sequence (O75530 whole entry partner) above
Chain of EZH2 (Q15022 whole entry partner): as the sequence (Q15022 whole entry partner) above

SMILES	Enzyme inhibition % EZH2 5 nM (EZH2)	Enzyme inhibition % EZH2 10 nM (EZH2)	IC50 ([1]; Homo sapiens, Pfeiffer, 264 h)	Enzyme inhibition % EZH1 10 nM (EZH1)	IC50 [1]	Enzyme inhibition % EZH1 5 nM (EZH1)
CSc1cc(C)[nH]c(=O)c1CNC(=O)c1cc(-c2ccc(N3C[C@@H](C)O[C@@H](C)C3)nc2)c2c(c1C)OC(C)([C@H]1CC[C@H](N3CC(OCCCC(F)(F)F)C3)CC1)O2 (stereo partly drawn) [Compound 104]	37.0%	82.6%	≤ 10 nM	19.9%		
CSc1cc(C)[nH]c(=O)c1CNC(=O)c1cc(-c2ccc(N3CCOCC3)nc2)c2c(c1C)OC(C)(C1CCN(CC(F)(F)F)CC1)O2 (stereo not drawn) [Compound 62, 2,4-dimethyl-N-((6-methyl-4-(methylthio)-2-oxo-1,2-dihydropyridin-3-yl)methyl)-7-(6-morpholinopyridin-3-yl)-2-(1-(2,2,2-trifluoro)piperidin-4-yl)benzo[d][1,3]dioxole-5-carboxamide]	93.6%	99.4%		81.8%	≤ 10 nM	66.9%
CSc1cc(C)[nH]c(=O)c1CNC(=O)c1cc(-c2cnc(N3CCOCC3)nc2)c2c(c1C)OC(C)(C1CCN(CC(F)(F)F)CC1)O2 (stereo not drawn) [Compound 69, 2,4-dimethyl-N-((6-methyl-4-(methylthio)-2-oxo-1,2-dihydropyridin-3-yl)methyl)-7-(2-morpholinopyrimidin-5-yl)-2-(1-(2,2,2-trifluoro)piperidin-4-yl)benzo[d][1,3]dioxole-5-carboxamide]	98.2%	99.6%		87.9%	≤ 10 nM	71.9%
CCN(C)c1ncc(-c2cc(C(=O)NCc3c(SC)cc(C)[nH]c3=O)c(C)c3c2OC(C)(C2CCN(CC(F)F)CC2)O3)cn1 (single isomer, unassigned) [Compound 82, 2-(1-(2,2-difluoroethyl)piperidin-4-yl)-7-(2-(ethyl(methyl)amino)pyrimidin-5-yl)-2,4-dimethyl-N-((6-methyl-4-(methylthio)-2-oxo-1,2-dihydropyridin-3-yl)methyl)benzo[d][1,3]dioxole-5-carboxamide]					10 to 100 nM	
CSc1cc(C)[nH]c(=O)c1CNC(=O)c1cc(-c2ccc(N3C[C@@H](C)O[C@@H](C)C3)nc2)c2c(c1C)OC(C)([C@H]1CC[C@H](N(C)C[C@H](C)O)CC1)O2 (stereo partly drawn) [Compound 29, 7-(6-((2S,6R)-2,6-dimethylmorpholino)pyridin-3-yl)-2-(trans-4-(((S)-2-hydroxypropyl)(methyl)amino)cyclohexyl)-2,4-dimethyl-N-((6-methyl-4-(methylthio)-2-oxo-1,2-dihydropyridin-3-yl)methyl)benzo[d][1,3]dioxole-5-carboxamide]			≤ 10 nM			
CSc1cc(C)[nH]c(=O)c1CNC(=O)c1cc(-c2cnc(N3C[C@@H](C)O[C@@H](C)C3)nc2)c2c(c1C)OC(C)([C@H]1CC[C@H](N(C)CC(F)(F)F)CC1)O2 (stereo partly drawn) [Compound 23, 7-(2-((2S,6R)-2,6-dimethylmorpholino)pyrimidin-5-yl)-2,4-dimethyl-2-(trans-4-(methyl(2,2,2-trifluoroethyl)amino)cyclohexyl)-N-((6-methyl-4-(methylthio)-2-oxo-1,2-dihydropyridin-3-yl)methyl)benzo[d][1,3]dioxole-5-carboxamide]					≤ 10 nM	
COC1CN([C@H]2CC[C@H](C3(C)Oc4c(-c5ccc(N6C[C@@H](C)O[C@@H](C)C6)nc5)cc(C(=O)NCc5c(SC)cc(C)[nH]c5=O)c(C)c4O3)CC2)C1 (stereo partly drawn) [Compound 106, 7-(6-((2S,6R)-2,6-dimethylmorpholino)pyridin-3-yl)-2-(trans-4-(3-methoxyazetidin-1-yl)cyclohexyl)-2,4-dimethyl-N-((6-methyl-4-(methylthio)-2-oxo-1,2-dihydropyridin-3-yl)methyl)benzo[d][1,3]dioxole-5-carboxamide]			≤ 10 nM			
